Where two headings read alike, the source gives them in different places.
Experiment: Pharmacokinetic study of abiraterone in hormone refractory prostate cancer patients, oral doses 250-2000 mg/day, fasted
Assay type: in vivo, human
Details: mean, fasted, plasma; for AUC(0-t) / Cmax / Tmax / AUC(0-inf): male, human; for AUC(0-inf): read-out: AUCINF_obs
Experimental: A group of 15 subjects was divided into five groups. Members of each group were orally administered doses of 250 mg/day, 500 mg/day, 750 mg/day, 1000 mg/day or 2000 mg/day once a day. Before administration the subjects had fasted. PK blood samples were measured at 1, 2, 4, 6, 8, 24, and 72 hours post dose.
To measure the amount of abiraterone and abiraterone acetate in the samples, these compounds were extracted from 100 uL human plasma using solid phase extraction (SPE) with cation mixed-mode polymer cartridges. Extracts were evaporated to dryness before reconstitution and analysis. Chromatography was carried out using a Luna™ C5 column (5 μm, 50 mm×2.1 mm id) with a gradient mobile phase consisting of 10 mM ammonium acetate and 2% propan-2-ol in acetonitrile. The flow rate was 0.2 mL/min and the run time 10.5 minutes. Abiraterone and abiraterone acetate were ionized using the electrospray interface in positive ion mode. Detection of analytes was via tandem mass spectrometry (MS/MS) in the multiple reaction monitoring (MRM) mode.
PK modeling was conducted using a non-compartmental model, extra vascular input for plasma with WinNonLin Software®. Pharmacokinetic parameters estimated in the model include: […]

[1] = 250 mg/day abiraterone acetate oral
[2] = 500 mg/day abiraterone acetate oral
[3] = 750 mg/day abiraterone acetate oral
[4] = 1000 mg/day abiraterone acetate oral
[5] = 2000 mg/day abiraterone acetate oral

## C[C@]12CC[C@H](O)CC1=CC[C@@H]1[C@@H]2CC[C@]2(C)C(c3cccnc3)=CC[C@@H]12 [Abiraterone]
[1]
  AUC(0-t): 1.25 µM·h
  Cmax: 219 nM
  Tmax: 2.05 h
  AUC(0-inf): 1.37 µM·h
  Cl_F_obs: 567.2 L/h
  HL_Lambda_z: 11.6 h
  Vz_F_obs: 10772.0 L
[2]
  AUC(0-t): 1.33 µM·h
  Cmax: 284 nM
  Tmax: 2.59 h
  AUC(0-inf): 1.45 µM·h
  Cl_F_obs: 1347.2 L/h
  HL_Lambda_z: 9.5 h
  Vz_F_obs: 14032.5 L
[3]
  AUC(0-t): 4.29 µM·h
  Cmax: 1030 nM
  Tmax: 1.71 h
  AUC(0-inf): 4.54 µM·h
  Cl_F_obs: 494 L/h
  HL_Lambda_z: 10.8 h
  Vz_F_obs: 8340 L
[4]
  AUC(0-t): 5.03 µM·h
  Cmax: 659 nM
  Tmax: 3.09 h
  AUC(0-inf): 5.32 µM·h
  Cl_F_obs: 861.6 L/h
  HL_Lambda_z: 9.9 h
  Vz_F_obs: 10125.5 L
[5]
  AUC(0-t): 4.75 µM·h
  Cmax: 531 nM
  Tmax: 2.67 h
  AUC(0-inf): 4.98 µM·h
  Cl_F_obs: 1280.3 L/h
  HL_Lambda_z: 12.0 h
  Vz_F_obs: 21598.8 L

— patent US20090124587A1, “METHODS FOR TREATING CANCER USING 17alpha-HYDROXYLASE/C17,20-LYASE INHIBITORS” (priority 2007, published 2009)
